In patent US9598396B2, “Tetrahydrophenanthridinones and tetrahydrocyclopentaquinolinones as PARP and tubulin polymerization inhibitors” (Janssen Pharmaceutica NV, priority 2008, dated 2017):

Tests used:
[1] = molecular target: Human PARP-1 enzyme (Homo sapiens (Human), UniProt P09874); experiment: In vitro Scintillation Proximity Assay (SPA) for PARP-1 inhibitory activity; format: biochemical; details: nicked DNA activated PARP-1, [3H]-NAD+, biotinylated histones
Method: C.1.In Vitro Scintillation Proximity Assay (SPA) for PARP-1 Inhibitory Activity
Compounds of the present invention were tested in an in vitro assay based on SPA technology (proprietary to GE healthcare).
In principle, the assay relies upon the well established SPA technology for the detection of poly(ADP-ribosyl)ation of biotinylated target proteins, i.e histones. This ribosylation is induced using nicked DNA activated PARP-1 enzyme and [^3H]-nicotinamide adenine dinucleotide ([^3H]-NAD^+) as ADP-ribosyl donor.
Histones (type II-A, supplier: Sigma) were biotinylated using the biotinylation kit of Amersham and stored aliquoted at −20° C. A stock solution of 100 mg/ml SPA poly(vinyl toluene) (PVT) beads (supplier: Amersham) was made in PBS. A stock solution of 61.6 nM […] was made by adding [^3H]-NAD^+ (0.1 mCi/ml, supplier: Perkin Elmer) to incubation buffer (50 mM Tris/HCl, pH 8; 0.2 mM DTT; 4 mM MgCl2). A solution of 4 mM NAD^+ (supplier: Sigma) was made. Human PARP-1 enzyme was obtained from Trevigen. Biotinylated histones and PVT-SPA beads were mixed and pre-incubated for 30 minutes at room temperature. PARP-1 enzyme (concentration was lot dependent) was mixed with the nicked DNA and the mixture was pre-incubated for 30 minutes at 4° C. Equal parts of this histones/PVT-SPA beads solution and PARP-1 enzyme/DNA solution were mixed and 75 μl of this mixture together with 1 μl of compound in DMSO and 25 μl of [^3H]-NAD^+was added per well into a 96-well microtiterplate. The final concentrations in the incubation mixture were 2 μg/ml for the biotinylated histones, 2 mg/ml for the PVT-SPA beads, 0.25 μg/ml for the nicked DNA and between 0.1-0.2 μg/ml for the PARP-1 enzyme. After incubation of the mixture for 20 minutes at room temperature, the reaction was terminated by adding 100 μl of 4 mM NAD^+ in water (final concentration 2 mM) and plates were mixed. The beads were sedimented by centrifugation (10 min, 800 rpm) and plates transferred to a TopCountNXT™ (Packard) for scintillation counting, values were expressed as counts per minute (cpm). For each experiment, controls (containing PARP-1 enzyme and DMSO without compound), a blank incubation (containing DMSO but no PARP-1 enzyme, no DNA or compound) and samples (containing PARP-1 enzyme, DNA and compound dissolved in DMSO) were run in parallel. All compounds tested were dissolved and eventually further diluted in DMSO. A dose-response curve was made wherein the compounds were tested at concentrations between 10^−5M and 3×10^−9M. In each test, the blank value was subtracted from both the control and the sample values. The control sample represented maximal PARP-1 enzyme activity. For each sample, the amount of cpm was expressed as a percentage of the mean cpm value of the controls. […] Herein the effects of test compounds are expressed as pIC50 (the negative log value of the IC50-value). As a reference compound, 4-amino-1,8-naphthalimide was included to validate the SPA assay.

[2] = molecular target: TANK-2 enzyme (Homo sapiens (Human), UniProt Q9H2K2); experiment: In vitro Scintillation Proximity Assay (SPA) for TANK-2 inhibitory activity; format: biochemical; details: auto-poly(ADP-ribosyl)ation, [3H]-NAD+, Ni flash plates (96 or 384 well)
Chain of TANK-2 enzyme (Q9H2K2 whole entry): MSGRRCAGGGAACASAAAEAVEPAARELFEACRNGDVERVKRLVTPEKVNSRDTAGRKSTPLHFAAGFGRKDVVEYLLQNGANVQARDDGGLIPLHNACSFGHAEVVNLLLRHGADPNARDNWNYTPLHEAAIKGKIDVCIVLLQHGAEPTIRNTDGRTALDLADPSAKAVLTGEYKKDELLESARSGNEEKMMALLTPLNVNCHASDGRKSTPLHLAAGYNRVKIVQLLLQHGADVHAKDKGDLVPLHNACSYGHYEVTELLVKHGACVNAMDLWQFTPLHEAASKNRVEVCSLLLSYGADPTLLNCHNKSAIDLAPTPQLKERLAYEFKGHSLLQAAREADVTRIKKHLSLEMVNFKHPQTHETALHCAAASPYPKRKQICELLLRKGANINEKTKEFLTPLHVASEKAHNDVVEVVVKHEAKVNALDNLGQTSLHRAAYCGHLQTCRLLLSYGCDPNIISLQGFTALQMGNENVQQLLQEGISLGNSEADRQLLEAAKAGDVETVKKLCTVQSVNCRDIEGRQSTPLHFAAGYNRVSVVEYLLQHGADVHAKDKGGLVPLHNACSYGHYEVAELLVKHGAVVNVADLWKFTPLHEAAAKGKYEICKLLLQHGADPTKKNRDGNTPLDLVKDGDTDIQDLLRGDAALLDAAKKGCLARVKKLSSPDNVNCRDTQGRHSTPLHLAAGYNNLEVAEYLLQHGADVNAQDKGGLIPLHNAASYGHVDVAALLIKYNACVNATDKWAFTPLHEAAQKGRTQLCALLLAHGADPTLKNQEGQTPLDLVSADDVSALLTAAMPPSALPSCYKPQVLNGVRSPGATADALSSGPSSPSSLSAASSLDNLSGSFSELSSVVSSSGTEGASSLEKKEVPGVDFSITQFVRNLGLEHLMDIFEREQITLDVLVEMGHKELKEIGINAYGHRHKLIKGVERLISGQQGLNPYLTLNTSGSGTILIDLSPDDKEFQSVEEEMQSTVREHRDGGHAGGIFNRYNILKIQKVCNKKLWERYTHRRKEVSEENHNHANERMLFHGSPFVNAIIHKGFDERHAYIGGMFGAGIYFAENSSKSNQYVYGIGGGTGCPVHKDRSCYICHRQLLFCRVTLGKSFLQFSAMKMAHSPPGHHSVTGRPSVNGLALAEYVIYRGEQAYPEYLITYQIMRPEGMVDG
Method: C.2.In Vitro Scintillation Proximity Assay (SPA) for TANK-2 Inhibitory Activity
Compounds of the present invention were tested in an in vitro assay based on SPA technology with Ni Flash plates (96 or 384 well).
In principle, the assay relies upon SPA technology for the detection of auto-poly(ADP-ribosyl)ation of TANK-2 protein using [^3H]-nicotinamide adenine dinucleotide ([^3H]-NAD^+) as ADP-ribosyl donor.
A stock solution of 100 nM [^3H]-NAD^+/NAD (0.1 mCi/ml, supplier: Perkin Elmer) and 25 μM NAD (Sigma) was made in assay buffer (60 mM Tris/HCl, pH 7.4; 0.9 mM DTT; 6 mM MgCl2). The TANK-2 enzyme was produced as described in EP1238063. 60 μl of assay buffer, together with 1 μl of compound in DMSO, 20 μl of [^3H]-NAD^+/NAD and 20 μl of TANK-2 enzyme (final concentration 8 μg/ml) was added per well into a 96-well Ni-coated flash plate (Perkin Elmer). After incubation of the mixture for 120 minutes at room temperature, the reaction was terminated by adding 60 μl of stopsolution (42.6 mg NAD in 6 ml H2O). The plates were covered with a plate sealer and placed in a TopCountNXT™ (Packard) for scintillation counting. Values were expressed as counts per minute (cpm). For each experiment, controls (containing TANK-2 enzyme and DMSO without compound), a blank incubation (containing DMSO but no TANK-2 enzyme or compound) and samples (containing TANK-2 enzyme and compound dissolved in DMSO) were run in parallel. All compounds tested were dissolved and eventually further diluted in DMSO. In first instance, compounds were tested at a concentration of 10^−5M. […] In each test, the blank value was subtracted from both the control and the sample values. The control sample represented maximal TANK-2 enzyme activity. For each sample, the amount of cpm was expressed as a percentage of the mean cpm value of the controls. […] Herein the effects of test compounds are expressed as pIC50 (the negative log value of the IC50-value). As reference compounds, 3-aminobenzamide and 4-amino-1,8-naphtalimide were included to validate the SPA assay. Herein the assay was described using 96-well plates. In the assay using 384-well plates the same final concentrations were used and volumes were adapted.

[3] = tested on: Human colon carcinoma HCT116 cells; experiment: Detection of antiproliferative activity (Alamar Blue assay); format: cell-based; details: HCT-116, 96 h, 4-day incubation, read-out: Cellular assay HCT116 pIC50 (converted)
Method: Example C.4 Detection of Antiproliferative Activity
Human colon carcinoma HCT116 cells obtained from the ATCC were cultured in McCoy's 5A medium supplemented with 2 mM L-Glutamine, 50 μg/ml gentamicin and 10% heat inactivated fetal calf serum.
Reagents used in the Alamar Blue Assay
Resazurin was purchased from Aldrich (Prod. No. 199303). Potassium ferrocyanide, potassium ferricyanide, KH2PO4 and K2HPO4 were purchased from Sigma (Prod. Nos. P9387, P8131, P5655 and P8281, respectively).
Potassium Phosphate Buffer 0.1 M (PPB) was made as follows: 2.72 gram KH2PO4 and 13.86 gram K2HPO4 were dissolved in 500 ml milli-Q H2O, the pH was adjusted to pH 7.4 and the volume was brought to 1 liter with milli-Q H2O; the buffer was filter sterilised and stored at room temperature. Resazurin stock solution (PPB-A) was prepared fresh by dissolving 45 mg resazurin in 15 ml PBS. 30 mM potassium ferricyanide (PPB-B) was prepared by dissolving 0.987 gram potassium ferricyanide in 100 ml PPB. 30 mM potassium ferrocyanide (PPB-C) was prepared by dissolving 1.266 gram potassium ferrocyanide in 100 ml PPB.
Mixture of PPB-A, PPB-B and PPB-C was prepared by mixing equal volumes of the respective solutions. Resazurin work solution (herein termed “Alamar Blue” solution) was prepared by diluting said mixture 20× (vol/vol) in PPB and filter sterilising; the Alamar Blue solution could be kept at 4° C. for a maximum of 2 weeks.
Procedure of the Alamar Blue Assay
For experiments in 384 wells plates the cells were seeded at a density of 4.5×10^3 cells/ml in Falcon 384-well culture plates (Life Technologies, Merelbeke, Belgium), black with clear bottom, in 45 μl culture medium. Cells were allowed to adhere to plastic for 24 hours. The tested compound was pre-diluted (1/50 in culture medium) and 5 μl pre-diluted compound was added to the wells. Following 4-day incubation, 10 μl of the Alamar Blue solution was added to each well and the cells were further incubated for 4 hours (HCT116) or 24 hours (PC-3) at 37° C. The fluorescence intensity was measured for each well on a Fluorescence plate reader (Fluorskan, Labsystems, 540 nm excitation and 590 nm emission)
The antiproliferative activity was calculated as percentage of remaining viable cells in treated versus control (untreated cells) conditions. Within an experiment, the result for each experimental condition is the mean of 3 replicate wells. When appropriate, the experiments were repeated to establish full concentration-response curves. […] Herein the effects of tested compounds are expressed as pIC50 (the negative log value of the IC50 value) (see Table 3).

Chain of Human PARP-1 enzyme (P09874 whole entry): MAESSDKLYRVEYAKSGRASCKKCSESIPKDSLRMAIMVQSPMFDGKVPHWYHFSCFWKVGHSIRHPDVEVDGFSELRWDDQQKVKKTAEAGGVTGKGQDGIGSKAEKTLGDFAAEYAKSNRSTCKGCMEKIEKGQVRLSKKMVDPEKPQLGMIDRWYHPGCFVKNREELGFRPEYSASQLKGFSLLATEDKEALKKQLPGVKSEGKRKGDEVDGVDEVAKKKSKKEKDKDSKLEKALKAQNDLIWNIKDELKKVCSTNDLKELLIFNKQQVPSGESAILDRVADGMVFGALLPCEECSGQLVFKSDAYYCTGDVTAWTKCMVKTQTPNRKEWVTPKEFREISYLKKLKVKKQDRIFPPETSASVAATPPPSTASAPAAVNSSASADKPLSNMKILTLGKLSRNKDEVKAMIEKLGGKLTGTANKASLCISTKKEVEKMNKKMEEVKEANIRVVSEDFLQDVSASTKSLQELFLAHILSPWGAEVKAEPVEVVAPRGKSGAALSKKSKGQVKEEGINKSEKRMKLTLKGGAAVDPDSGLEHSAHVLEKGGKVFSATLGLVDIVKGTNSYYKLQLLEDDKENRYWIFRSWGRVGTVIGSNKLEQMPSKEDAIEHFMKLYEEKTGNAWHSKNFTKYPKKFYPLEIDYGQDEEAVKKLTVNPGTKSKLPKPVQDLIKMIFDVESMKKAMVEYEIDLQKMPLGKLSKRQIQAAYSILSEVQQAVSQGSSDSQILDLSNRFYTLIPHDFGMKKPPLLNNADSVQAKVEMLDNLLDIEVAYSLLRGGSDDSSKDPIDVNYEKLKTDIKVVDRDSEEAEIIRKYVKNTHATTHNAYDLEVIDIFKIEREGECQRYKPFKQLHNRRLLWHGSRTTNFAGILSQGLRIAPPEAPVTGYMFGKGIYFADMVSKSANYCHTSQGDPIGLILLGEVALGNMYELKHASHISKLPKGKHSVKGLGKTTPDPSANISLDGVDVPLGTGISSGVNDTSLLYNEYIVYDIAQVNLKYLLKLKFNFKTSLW

| Structure (SMILES) | in vitro SPA assay PARP-1 pIC50 [1] | in vitro SPA assay TANK-2 pIC50 [2] | IC50 [3] [nM] | IC50 ([1]; read-out: in vitro SPA assay PARP-1 pIC50 (converted)) [nM] | IC50 ([2]; read-out: in vitro SPA assay TANK-2 pIC50 (converted)) [nM] |
| --- | --- | --- | --- | --- | --- |
| C[C@@](C#N)(Cc1ccccc1)c1ccc2c3c(c(=O)[nH]c2c1)CCCC3 (single isomer, unassigned) [Co. No. 2] | 7.33 | 7.43 | > 10000 | – | – |
| C[C@](C#N)(Cc1ccccc1)c1ccc2c3c(c(=O)[nH]c2c1)CCCC3 (single isomer, unassigned) [Co. No. 3] | 7.26 | 7.48 | 158 | – | – |
| C[C@@](C#N)(Cc1cccc(F)c1)c1ccc2c3c(c(=O)[nH]c2c1)CCCC3 (single isomer, unassigned) [Co. No. 5a] | 7.80 | 7.40 | > 10000 | – | – |
| C[C@](C#N)(Cc1cccc(F)c1)c1ccc2c3c(c(=O)[nH]c2c1)CCCC3 (single isomer, unassigned) [Co. No. 5b] | 7.44 | 7.47 | 97.7 | – | – |
| CC(C#N)(Cc1cc(Cl)nc(Cl)c1)c1ccc2c3c(c(=O)[nH]c2c1)CCCC3 (stereo not drawn) [Co. No. 9] | 7.20 | 6.35 | 158 | – | – |
| CC(C#N)(Cc1cccc(OC(F)(F)F)c1)c1ccc2c3c(c(=O)[nH]c2c1)CCCC3 (stereo not drawn) [Co. No. 10] | 6.66 | 7.23 | 186 | – | – |
| COc1cccc(CC(C)(C#N)c2ccc3c4c(c(=O)[nH]c3c2)CCCC4)c1 (stereo not drawn) [Co. No. 11] | 7.06 | 7.45 | 155 | – | – |
| Cn1nc(CC(C)(C#N)c2ccc3c4c(c(=O)[nH]c3c2)CCCC4)c2ccccc21 (stereo not drawn) [Co. No. 12] | 7.34 | 7.37 | 178 | – | – |
| Cn1c(CC(C)(C#N)c2ccc3c4c(c(=O)[nH]c3c2)CCCC4)nc2ccccc21 (stereo not drawn) [Co. No. 13] | 7.38 | 7.37 | 269 | – | – |
| COC(=O)c1cccc(CC(C)(C#N)c2ccc3c4c(c(=O)[nH]c3c2)CCCC4)c1 (stereo not drawn) [Co. No. 14] | – | – | 105 | 97.7 | 63.1 |
| CC(C#N)(Cc1cccc(CO)c1)c1ccc2c3c(c(=O)[nH]c2c1)CCCC3 (stereo not drawn) [Co. No. 15] | 7.48 | 7.39 | 229 | – | – |
| CC(C#N)(Cc1cccc(CN)c1)c1ccc2c3c(c(=O)[nH]c2c1)CCCC3 (stereo not drawn) [Co. No. 16] | 6.10 | 7.42 | 417 | – | – |
| CN(CC(C)(C#N)c1ccc2c3c(c(=O)[nH]c2c1)CCCC3)C(=O)c1ccccc1 (stereo not drawn) [Co. No. 18] | – | – | > 10000 | – | – |
| CN(Cc1ccc(C#N)cc1)CC(C)(C#N)c1ccc2c3c(c(=O)[nH]c2c1)CCCC3 (stereo not drawn) [Co. No. 19] | – | 7.19 | 589 | – | – |
